Measured values: patent publication US20240252508A1, “Novel glucose uptake inhibitors for use in the treatment of cancer” (NOVELYEAST BV, priority 2021, published 2024)
Entries after “also recorded” stand apart in the source; their conditions may differ.

What was measured:
[1] = tested on: A549 lung adenocarcinoma cells; experiment: A549 cell proliferation / growth inhibition; format: cell-based, human; conditions: for Selected from primary screen for growth inhibition of A549 cells at 50 μM: 50 μM compound; for Selected for having an IC50 ratio (10 mM glucose: 1 mM glucose) of A549 growth higher than WBC-A: IC50 on 10 mM vs 1 mM glucose, compared with WBC-A
Procedure, shortened: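 A549 growth screened in RPMI with 1 mM glucose, compounds at 50 μM; cell number from counts of Hoechst-stained nuclei after 3 days. Growth curves also followed by IncuCyte phase-contrast confluency over 3–5 days (1000–1500 cells/well), DMSO ≤0.1%, ≥4 technical repeats.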

[2] = tested on: A549 lung adenocarcinoma cells; experiment: 2-deoxyglucose uptake in A549 cells; format: cell-based, human; conditions: Lineweaver-Burk plot analysis
Experimental: Zero-trans glucose uptake in A549 cells was approximated by measuring the uptake of [1,2-^3H]2-deoxyglucose. For this purpose, A549 cells were pregrown in RPMI medium containing 10 mM glucose in a 24-well plate to a cell density of around 100,000 cells/well. Prior to adding radioactive label, cells were gently washed twice in Krebs-Ringer-HEPES buffer (50 mM HEPES pH 7.4, 137 mM NaCl, 4.7 mM KCl, […], 1.3 mM MgSO4 and 0.1% w/v BSA) at 30° C. to remove any residual sugar. RPMI medium without sugar containing the compound intended for treatment, was added to the cells for 15 min at 37° C. to allow adequate interaction of the cells with the compound.
The uptake measurement was initiated by adding an equal volume of medium containing radiolabeled 2DG. After 3-4 min, medium was aspirated and cells were gently washed three times with ice-cold Krebs-Ringer-HEPES buffer. Cells were lysed by adding 200 μL of ice-cold 0.1 M NaOH solution and incubating the plate for 10 min at 37° C. Cell lysates were transferred to scintillation vials for subsequent scintillation counting. For blank measurements, cells were incubated with 50 μM Cytochalasin B prior to the uptake measurement.

[3] = tested on: U266 multiple myeloma cell line; experiment: U266 proliferation (cell count); format: cell-based, human; conditions: 25 μM, 4 days, RPMI with 1 mM glucose
Experimental: a. Cell count of the U266 multiple myeloma cell line after 4 days of growth on RPMI medium with 1 mM glucose. Cells were treated with either DMSO or 25 μM of WBC-A, -15C, -4C or -11C. Glucose consumption (b.) or lactate secretion (c.) rates are shown for U266 cells incubated in RPMI medium supplemented with 1 mM glucose for 8 h.

[4] = tested on: A549 lung adenocarcinoma cells; experiment: Steady-state glucose consumption and lactate production in A549 cells; format: cell-based, human; conditions: 25 μM, 1 mM glucose, 8 h
Experimental: (§1) The influence of WBC compounds on the steady-state glucose consumption rate was studied in the A549 adenocarcinoma and KMS-12-PE multiple myeloma cell lines. As such, different parameters needed to be optimized depending on whether cells were adherent or in suspension. As such, A549 cells were incubated at 125,000 cells/well in a 24-well plate in 300 μL RPMI medium for 8 h. For the KMS-12-PE cell line, 100,000 cells/well were incubated in 100 μL RPMI medium in a 96-well plate for 8 h. Medium was collected, spun down and HPLC-analyzed for measuring glucose and lactate levels. Metabolite levels were corrected for cell number, which always varied little over the span of 8 h. For every condition, at least 4 technical repeats were included.

[5] = tested on: KMS-12-PE multiple myeloma cells; experiment: Steady-state glucose consumption and lactate production in KMS-12-PE cells; format: cell-based, human; conditions: 25 μM, 1 mM glucose, 8 h
Experimental: as §1

[6] = Warbicin toxicity and tolerability in mice; format: in vivo, NMRI-nu mice
Experimental: Warbicin in vivo toxicity and tolerability was examined by subjecting NMRI-nu mice to daily intraperitoneal injection of either WBC-A, WBC-15C, WBC-4C or WBC-11C. Compounds were dosed at either 5 mg/kg, 10 mg/kg or 20 mg/kg over a period of 20 days. Three mice were used per condition. To evaluate toxicity, change in body weight was registered daily. As a humane endpoint, mice that lost more than 20% of their original body weight were prematurely sacrificed. An optimal dissolve strategy was developed to administer WBC compounds by intraperitoneal injection. Due to their considerable hydrophobicity, compounds were dissolved in a sterilized 1×PBS, 5% DMSO and 5% Tween-80 solution. For WBC-A, -15C and -4C, this gives an initial clear solution that gradually changes over time into a homogenous suspension which can still be administered in a reproducible way. For WBC-11C it immediately results in a homogenous suspension.

tps1Δ cells = experiment: Growth rescue of tps1Δ strain on glucose (growth curves, 2% galactose medium); format: cell-based, S. cerevisiae; conditions: 100 μM compound, 2.5 mM glucose
Procedure, shortened: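 tps1Δ yeast pregrown in Complete Synthetic medium with 2% galactose, washed, resuspended to OD 0.1; compounds added 10 min before glucose. Growth followed as OD595 every 30 min at 30 °C in at least three technical replicates.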

Compound | Rescue of the tps1Δ strain on 2.5 mM glucose at 100 μM (tps1Δ cells) | Selected from primary screen for growth inhibition of A549 cells at 50 μM ([1]; 1 mM glucose) | Selected for having an IC50 ratio (10 mM glucose: 1 mM glucose) of A549 growth higher than WBC-A [1] | also measured
Cc1nc(NCC(=O)Nc2ccccc2Br)c2c(-c3cccs3)csc2n1 [WBC-15C] |  |  |  | Growth inhibition of A549 cells at the highest concentration ([1]; 50 μM, 1 mM glucose): failed to cause complete inhibition; Potency in reducing maximal growth rate of A549 cells ([1]; 1 mM glucose, 6.25-50 μM): least potent; Type of inhibition of 2-deoxyglucose uptake in A549 cells [2]: competitive; Proliferation of U266 cell line [3]: inhibit proliferation; Glucose consumption and lactate production in A549 cells [4]: inhibited; Glucose consumption and lactate production in KMS-12-PE cells [5]: inhibited; Toxic effects in organs at autopsy, 20 mg/kg ([6]; daily i.p. 20 mg/kg, not observed at lower concentrations): toxic effects were seen in the liver and other organs; Loss in body weight over 20 days ([6]; daily i.p. 5, 10 and 20 mg/kg, nude mice): no significant loss in body weight; also recorded: No significant difference; AST/ALT ratio vs vehicle ([6]; sera after 20 days, 5, 10, 20 mg/kg i.p.): No significant difference; Blood glucose level vs vehicle ([6]; sera post mortem after 20 days, 5, 10, 20 mg/kg i.p.): No significant difference
CC1CCc2c(sc3ncnc(Sc4nnc5n4CCCCC5)c23)C1 (centres unmarked) [31A] | No | No |  | 
CN(Cc1nnc2n1CCCCC2)c1ncnc2sc(-c3ccccc3)cc12 [34A] | No | No |  | 
Cc1nc(Sc2nnc(-c3cccnc3)n2C)c2c(-c3cccs3)csc2n1 [23A] | Yes | Yes | Lower IC50 ratio | 
Cc1nc(SCCO)c2c3c(sc2n1)CCC3 [24C] | No | No |  | 
CCCc1nnc(Sc2nc(C)nc3scc(-c4cccs4)c23)[nH]1 [50C] | Yes | Yes | Lower IC50 ratio | 
COc1cccc(NC(=O)CSc2ncnc3sc(C)c(-c4ccccc4)c23)c1 [12B] | No | Yes | Lower IC50 ratio | 
OCCSc1ncnc2scc(-c3ccc(F)cc3)c12 [56C] | No | No |  | 
Cc1nc(Sc2nnc(C)[nH]2)c2c(-c3ccccc3)csc2n1 [13A] | No | No |  | 
Nc1nc(CSc2nnc3n2CCCCC3)nc2sc3c(c12)CCCCC3 [35A] | No | Yes | Lower IC50 ratio | 
COc1cccc(NC(=O)CSc2nc(C)nc3scc(-c4cccs4)c23)c1 [45B] | No | Yes | Higher IC50 ratio, but false-positive | 
CCNc1nnc(Sc2nc(C)nc3scc(-c4cccs4)c23)s1 [46C] | No | No |  | 
Cc1nc(Sc2nnc3n2CCCCC3)c2c(-c3cccs3)csc2n1 [A] | Yes | Yes |  | 
Cc1nnc(SCC(=O)N2CCOCC2)c2c1cnn2-c1ccccc1 [70C] | No | No |  | 
c1ccc2c(c1)sc1nnc(Sc3ncnc4sc5c(c34)CCCC5)n12 [62A] | No | No |  | 
CCn1c(Sc2nc(C)nc3scc(-c4cccs4)c23)nnc1-c1ccco1 [38C] | No | No |  | 
Cc1nc(NCCCN2CCC(O)CC2)c2c(-c3cccs3)csc2n1 [16B] | No | No |  | 
Cc1nc(NCC(=O)Nc2ccccc2Br)c2c(-c3cccs3)csc2n1 [15C] | No | Yes | Higher IC50 ratio and confirmed | 
Cc1nc(SCCO)c2c(-c3cccs3)csc2n1 [47A] | Yes | Yes | Lower IC50 ratio | 
[O-][S+](CCSc1ncnc2scc(-c3ccc(F)cc3)c12)c1ccccc1 (centres unmarked) [45C] | No | Yes | Lower IC50 ratio | 
Cc1ccc(-c2csc3ncnc(SCCN4CCOCC4)c23)cc1 [9C] | No | Yes | Lower IC50 ratio | 
Cc1ccc(-c2csc3ncnc(Sc4nnnn4C)c23)cc1 [57A] | No | Yes | Lower IC50 ratio | 
Cc1nc(Sc2nnc3n2CCCCC3)c2c3c(sc2n1)CCC3 [63A] | No | No |  | 
CCN(C(=O)CSc1nc(C)nc2scc(-c3cccs3)c12)C1CCS(=O)(=O)C1 (centres unmarked) [2C] | Yes | Yes | Lower IC50 ratio | 
Cc1nc(NC2CCC(O)CC2)c2c(-c3cccs3)csc2n1 (centres unmarked) [42B] | No | No |  | 
Cc1nc(Sc2nnnn2C2CC2)c2c(-c3cccs3)csc2n1 [44C] | No | Yes | Lower IC50 ratio | 
CCc1nc(SCC(=O)OC)c2c3c(sc2n1)COC(C)(C)C3 [79C] | No | No |  | 
